The target of one experiment is T1, ETB receptor (Sus scrofa, UniProt P35463).
T1 construct: ETB receptors of porcine cerebellum membrane suspension used in the present experiments; from tissue; host or cells: porcine cerebellum membrane preparation
T1 sequence (P35463 27-443): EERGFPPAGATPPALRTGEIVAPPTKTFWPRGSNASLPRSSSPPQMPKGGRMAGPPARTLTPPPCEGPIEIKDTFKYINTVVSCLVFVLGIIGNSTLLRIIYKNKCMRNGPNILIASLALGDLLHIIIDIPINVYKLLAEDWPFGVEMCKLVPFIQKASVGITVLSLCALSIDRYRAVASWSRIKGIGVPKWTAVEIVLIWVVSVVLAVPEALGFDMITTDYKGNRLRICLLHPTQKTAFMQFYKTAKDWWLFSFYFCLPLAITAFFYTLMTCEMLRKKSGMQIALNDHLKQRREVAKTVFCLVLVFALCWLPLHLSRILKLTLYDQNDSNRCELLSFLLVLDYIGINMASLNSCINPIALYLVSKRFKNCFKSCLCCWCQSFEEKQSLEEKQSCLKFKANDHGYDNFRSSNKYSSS
In words: Endothelin binding inhibition test (125I-endothelin-1, porcine cerebellum membrane). Particulars: 1.1 μM test compound; porcine cerebellum membrane (ETB receptors). The method, then: The cerebellum of porcine was homogenized in a buffer solution of 10 mM MOPS, pH 7.4, at 4° C. by a polytron. To the homogenate, sucrose was added to a concentration of 20%, and the mixture was centrifuged at 1,000×g for 15 minutes, and the supernatant was further centrifuged at 10,000×g for 15 minutes. The supernatant thereof was further centrifuged at 90,000×g for 40 minutes. The membrane precipitate thereby obtained was suspended in a buffer solution of 5 mM HEPES/Tris, pH 7.4, at a concentration of 3.3 mg/ml. Then, 16 μl of this membrane suspension was added to 340 μl of 50 mM tris/HCl buffer, pH 7.4, containing […] calcium chloride, 10 μM magnesium chloride, 0.1 mM PMSF, 1 μM pepstatin A, 2 μM leupeptin, 1 mM 1,10-phenanthroline and 0.1% bovine serum albumin. […] These mixtures were incubated at 25° C. for 4 hours, then subjected to filtration on a glass filter GF/C and then washed with 5 mM HEPES/Tris, pH 7.4, containing 0.3% bovine serum albumin. […] [formula] Each test was performed in triplicate.
The test compounds are indicated by compound Nos.

For experiment [1], the system named is human Girardi heart cells. The experiment in a line: Inhibition of endothelin-1-induced increase in intracellular calcium concentration (fura-2). Format: cell-based. Particulars: for inhibition of ET-1-induced increase in intracellular calcium concentration: 1.1 μM compound given 5 minutes before 100 nM ET-1, fura-2-loaded cells; for effect on the intracellular calcium concentration itself: compound alone, fura-2-loaded human Girardi heart cells. The method, then:
Inhibitory activities of test compounds against endothelin-1-induced increase in intracellular calcium concentration of human Girardi heart cells
Antagonism of test compounds to endothelin-1-induced increase in intracellular calcium concentration was evaluated in human Girardi heart cells (Dainippon Seiyaku Co., Ltd.).
Cultured human Girardi heart cells in Flask were harvested using 0.25% trypsin and 0.02% EDTA. The collected cells were washed with Dulbecco's modification eagle medium containing 20 mM Hepes and 0.3% BSA (pH 7.4, D medium). Then the cells were suspended in D medium and incubated with 2 μM of fura-2 acetoxymethyl ester at 37° C. for 30 minutes. The cell suspensions were diluted with a 10-fold volume of D medium and incubated for 20 minutes. The fura-2-loaded cells were collected by centrifugation and resuspended in Krebs-Henseleit Hepes buffer (pH 7.4). The resultant suspension in a cuvette was continuously stirred at 37° C. throughout the following measurement process. Each test compound or vehicle was given 5 minutes before the addition of 100 nM ET-1, and fluorescence intensity at emission wavelength of 510 nm and excitation wavelength of 340 and 380 nm was monitored with a JASCO CAF-100 spectrofluorometer (Japan), and [Ca^2+ ]i values were calculated according to the reported method (G. Grynkiewicz et al., J. Biol. Chem. 260, 3440-3450 (1985)).
A general note: A change in cytosolic calcium serves as a functional read-out for many receptors and channels.

The next experiment has as its target T2, ETA receptors (Sus scrofa, UniProt Q29010).
T2 construct: porcine aorta membrane suspension containing a large amount of ETA receptors; from tissue; host or cells: porcine aorta membrane suspension
T2 sequence (Q29010 21-427): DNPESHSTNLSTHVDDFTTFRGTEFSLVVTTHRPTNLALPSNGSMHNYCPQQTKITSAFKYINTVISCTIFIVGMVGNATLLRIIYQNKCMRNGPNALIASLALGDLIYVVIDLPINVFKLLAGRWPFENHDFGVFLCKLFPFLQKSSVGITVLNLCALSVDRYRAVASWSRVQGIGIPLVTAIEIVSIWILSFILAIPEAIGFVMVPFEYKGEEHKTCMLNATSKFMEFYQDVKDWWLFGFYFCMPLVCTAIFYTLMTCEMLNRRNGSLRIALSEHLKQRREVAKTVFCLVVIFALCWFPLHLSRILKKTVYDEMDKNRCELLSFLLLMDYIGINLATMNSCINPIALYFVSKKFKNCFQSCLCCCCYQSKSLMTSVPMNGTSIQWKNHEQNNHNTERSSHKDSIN
The experiment in a line: 125I-ET-1 binding inhibition to porcine aorta membrane suspension. The conditions noted are these: 1.1 μM; porcine aorta membrane suspension containing a large amount of ETA receptors.

Numbered stars: 1 amine (or outer) side, 2 acyl side, 3 side chain; on linkers, the order of the positions; unused ones are H or OH. Square brackets hold non-standard residues; d marks the D form. Peptide text beside a SMILES is read from it. X1 = N#Cc1[nH]c2ccccc2c1C[C@@H](N[*:1])C(=O)[*:2]; dPen = CC(C)(S)[C@@H](N)C(=O)O

For the compound `CCCC[C@@H](NC(=O)[C@@H](Cc1c(C#N)[nH]c2ccccc12)NC(=O)[C@@H](NC(=O)N1C(C)CCCC1C)C(C)C)C(=O)O` (stereo partly drawn) [Compound 1], the inhibition at 1.1 µM on ETB receptor stood at 96%. Further, in experiment [1], the “inhibition of ET-1-induced increase in intracellular calcium concentration” value stood at 94% and the “effect on the intracellular calcium concentration itself” value is on record as “no effect”.

For `CCCC[C@@H](NC(=O)[C@@H](Cc1c(C#N)[nH]c2ccccc12)NC(=O)[C@H](CC(C)C)NC(=O)N1C(C)CCCC1C)C(=O)O` (stereo partly drawn) [Compound 2], the inhibition at 1.1 µM at ETB receptor worked out at 99%.

`CCCC[C@@H](NC(=O)[C@@H](Cc1c(C#N)[nH]c2ccccc12)NC(=O)[C@H](CC(C)(C)C)NC(=O)N1C(C)CCCC1C)C(=O)OC` (stereo partly drawn) [Compound 3] showed an inhibition at 1.1 µM at ETB receptor of 99%.

For the compound `CCCC[C@@H](NC(=O)[C@@H](Cc1c(C#N)[nH]c2ccccc12)NC(=O)[C@H](CC(C)(C)C)NC(=O)N1C(C)CCCC1C)C(=O)O` (stereo partly drawn) [Compound 4], the inhibition at 1.1 µM on ETB receptor was found to be 100%.

`CCC[C@@H](NC(=O)[C@@H](Cc1c(C#N)[nH]c2ccccc12)NC(=O)[C@@H](NC(=O)N1C(C)CCCC1C)C1CCCC1)C(=O)OC` (stereo partly drawn) [Compound 7] returned an inhibition at 1.1 µM at ETB receptor of 96%.

Take `CCC[C@@H](NC(=O)[C@@H](Cc1c(C#N)[nH]c2ccccc12)NC(=O)[C@@H](NC(=O)N1C(C)CCCC1C)C1CCCC1)C(=O)O` (stereo partly drawn) [Compound 8]: the inhibition at 1.1 µM on ETB receptor was 96%.

The compound `CCC[C@@H](NC(=O)[C@@H](Cc1c(C#N)[nH]c2ccccc12)NC(=O)[C@@H](NC(=O)N1C(C)CCCC1C)C1CCCC1)C(=O)NC` (stereo partly drawn) [Compound 9] registered an inhibition at 1.1 µM at ETB receptor of 100%.

The compound `COC(=O)C[C@H]1NC(=O)[C@@H](Cc2c(C#N)[nH]c3ccccc23)NC(=O)[C@H](CC(C)C)NC(=O)[C@@H](C(C)(C)SC)NC(=O)[C@@H]2CCCN2C1=O` [Compound 10] (cyclo(L[X1][dD](OMe)P[dPen](Me))) returned an inhibition at 1.1 µM at ETB receptor of 65%.

`CSC(C)(C)[C@H]1NC(=O)[C@@H]2CCCN2C(=O)[C@@H](CC(=O)O)NC(=O)[C@@H](Cc2c(C#N)[nH]c3ccccc23)NC(=O)[C@H](CC(C)C)NC1=O` [Compound 11] (cyclo(L[X1][dD]P[dPen](Me))): on ETB receptor, the inhibition at 1.1 µM is 97%. In addition, in experiment [1], the “inhibition of ET-1-induced increase in intracellular calcium concentration” value is recorded as 69% and the “effect on the intracellular calcium concentration itself” value is “no effect”.

On ETB receptor, `CC(C)C[C@@H]1NC(=O)[C@@H](C(C)C)NC(=O)[C@@H]2CCCN2C(=O)[C@@H](CC(=O)O)NC(=O)[C@@H](Cc2c(C#N)[nH]c3ccccc23)NC1=O` [Compound 12] (cyclo(L[X1][dD]P[dV])) registered an inhibition at 1.1 µM of 78%.

On ETB receptor, “cyclo(-DTrp-DAsp-Pro-DThg-Leu-) [compound 6, reference compound]” returned a 125I-endothelin-1 binding inhibition of 11%. On ETA receptors, this compound displayed a 125I-ET-1 binding inhibition of 82%.

On to “cyclo(-DTrp-DCys(O3 Na)-Pro-DVal-Leu-) [compound 5, reference compound]”, for which the 125I-endothelin-1 binding inhibition at ETB receptor was 0.6%. Also, the 125I-ET-1 binding inhibition at ETA receptors was determined as 85%.

Usually inhibition stands for the share of the control response that was lost under treatment.
